The values that follow come from patent publication US7582645B2, “Pyrimidine derivatives for treatment of hyperproliferative disorders” (Bayer Pharmaceuticals Corporation, priority 2003, dated 2009).

Structures are written as SMILES. pIC50: −log10 of the molar value. Where only a bound is given, the exact number is not on record here.

The first experiment concerns HCT116 cells. Nature of the experiment: HCT116 cytotoxic activity assay (Alamar Blue, 72 h). It counts as cell-based. The settings on record: Homo sapiens, HCT-116, 72 h compound exposure, greater than 500 nM but less than or equal to 2 μM. The method, then: Representative compounds of this invention were tested for cytotoxicity using the above-described assay procedure with the following results: […]
On to `N#Cc1cc(Oc2ccc(Nc3cc(-c4cc(F)cc(F)c4)nc(N)n3)cc2)ccn1` [Example 276, 4-(4-{[2-amino-6-(3,5-difluorophenyl)pyrimidin-4-yl]amino}phenoxy)pyridine-2-carbonitrile], for which the pIC50 is 5.70 to 6.30.
The same measure, in the same setting: the result for `NC(=O)c1cc(Oc2ccc(Nc3cc(-c4cc(F)cc(F)c4)nc(N)n3)cc2)ccn1` [Example 279, 4-(4-{[2-amino-6-(3,5-difluorophenyl)pyrimidin-4-yl]amino}phenoxy)pyridine-2-carboxamide] reads 5.70 to 6.30; that for `NC(=O)c1cc(Oc2cccc(Nc3cc(-c4cccc(OCc5ccccc5)c4)nc(N)n3)c2)ccn1` [Example 281, 4-[3-({2-amino-6-[3-(benzyloxy)phenyl]pyrimidin-4-yl}amino)phenoxy]pyridine-2-carboxamide], 5.70 to 6.30.
The compound `NC(=O)c1cc(Oc2cccc(Nc3cc(-c4cccc(N)c4)nc(N)n3)c2)ccn1` [Example 283, 4-(3-{[2-amino-6-(3-aminophenyl)pyrimidin-4-yl]amino}phenoxy) pyridine-2-carboxamide] had a negative-log IC50 (pIC50) of 5.70 to 6.30.
On the same count and under the same terms, the result for `COc1ccc(-c2cc(Nc3cccc(Oc4ccnc(C(N)=O)c4)c3)nc(N)n2)cn1` [Example 284, 4-(3-{[2-amino-6-(6-methoxypyridin-3-yl)pyrimidin-4-yl]amino}phenoxy) pyridine-2-carboxamide] reads 5.70 to 6.30.
Still for that read-out and setting: the same measure for `NC(=O)c1cc(Oc2cccc(Nc3cc(-c4ccccc4F)nc(N)n3)c2)ccn1` [Example 286, 4-(3-{[2-amino-6-(2-fluorophenyl)pyrimidin-4-yl]amino}phenoxy) pyridine-2-carboxamide]: 5.70 to 6.30; for `COc1ccccc1-c1cc(Nc2cccc(Oc3ccnc(C(N)=O)c3)c2)nc(N)n1` [Example 291, 4-(3-{[2-amino-6-(2-methoxyphenyl)pyrimidin-4-yl]amino}phenoxy) pyridine-2-carboxamide]: 5.70 to 6.30; for `N#CCc1ccc(-c2cc(Nc3cccc(Oc4ccnc(C(N)=O)c4)c3)nc(N)n2)cc1` [Example 294, 4-[3-({2-amino-6-[4-(cyanomethyl)phenyl]pyrimidin-4-yl}amino)phenoxy]pyridine-2-carboxamide]: 5.70 to 6.30.
In turn, `NC(=O)c1cc(Oc2cccc(Nc3cc(-c4cccnc4)nc(N)n3)c2)ccn1` [Example 297, 4-{3-[(2-amino-6-pyridin-3-ylpyrimidin-4-yl)amino]phenoxy} pyridine-2-carboxamide] had a pIC50 of 5.70 to 6.30.
Still for that read-out and setting: the same measure for `COc1ccc(OC)c(-c2cc(Nc3cccc(Oc4ccnc(C(N)=O)c4)c3)nc(N)n2)c1` [Example 300, 4-(3-{[2-amino-6-(2,5-dimethoxyphenyl)pyrimidin-4-yl]amino}phenoxy)pyridine-2-carboxamide]: 5.70 to 6.30.

The same experiment, now with this note: Homo sapiens, HCT-116, 72 h compound exposure, greater than 2 μM.
`CC(C)c1cccc(-c2cc(Nc3ccc(Oc4ccnc(C(N)=O)c4)cc3)nc(N)n2)c1` [Example 270, 4-(4-{[2-amino-6-(3-isopropylphenyl)pyrimidin-4-yl]amino}phenoxy) pyridine-2-carboxamide]: the pIC50 was under 5.70.
The same measure, in the same setting: the same measure for `NC(=O)c1cc(Oc2ccc(Nc3cc(-c4ccc(Cl)c(Cl)c4)nc(N)n3)cc2)ccn1` [Example 272, 4-(4-{[2-amino-6-(3,4-dichlorophenyl)pyrimidin-4-yl]amino}phenoxy)pyridine-2-carboxamide]: under 5.70; for `N#Cc1cc(Oc2ccc(Nc3cc(-c4cccc(OC(F)(F)F)c4)nc(N)n3)cc2)ccn1` [Example 274, 4-[4-({2-amino-6-[3-(trifluoromethoxy)phenyl]pyrimidin-4-yl}amino)phenoxy]pyridine-2-carbonitrile]: under 5.70.
Regarding `NC(=O)c1cc(Oc2ccc(Nc3cc(-c4cccc(OC(F)(F)F)c4)nc(N)n3)cc2)ccn1` [Example 277, 4-[4-({2-amino-6-[3-(trifluoromethoxy)phenyl]pyrimidin-4-yl}amino)phenoxy]pyridine-2-carboxamide], the pIC50 is under 5.70.
Same read-out and setting: the result for `NC(=O)c1cc(Oc2cccc(Nc3cc(-c4ccc(-c5ccccc5)cc4)nc(N)n3)c2)ccn1` [Example 280, 4-{3-[(2-amino-6-biphenyl-4-ylpyrimidin-4-yl)amino]phenoxy} pyridine-2-carboxamide] reads under 5.70.
Compound `NC(=O)c1cc(Oc2cccc(Nc3cc(-c4cccc(F)c4)nc(N)n3)c2)ccn1` [Example 285, 4-(3-{[2-amino-6-(3-fluorophenyl)pyrimidin-4-yl]amino}phenoxy) pyridine-2-carboxamide] showed a pIC50 of under 5.70.
On the same count and under the same terms, the result for `CN(C)c1ccc(-c2cc(Nc3cccc(Oc4ccnc(C(N)=O)c4)c3)nc(N)n2)cc1` [Example 287, 4-[3-({2-amino-6-[4-(dimethylamino)phenyl]pyrimidin-4-yl}amino)phenoxy]pyridine-2-carboxamide] reads under 5.70; that for `COc1ccc(C(C)C)cc1-c1cc(Nc2cccc(Oc3ccnc(C(N)=O)c3)c2)nc(N)n1` [Example 289, 4-(3-{[2-amino-6-(5-isopropyl-2-methoxyphenyl)pyrimidin-4-yl]amino}phenoxy)pyridine-2-carboxamide], under 5.70.
Still for that read-out and setting: the result for `CC(C)c1ccc(-c2cc(Nc3cccc(Oc4ccnc(C(N)=O)c4)c3)nc(N)n2)cc1` [Example 293, 4-(3-{[2-amino-6-(4-isopropylphenyl)pyrimidin-4-yl]amino}phenoxy) pyridine-2-carboxamide] reads under 5.70; that for `Cc1ccc(-c2cc(Nc3cccc(Oc4ccnc(C(N)=O)c4)c3)nc(N)n2)cc1` [Example 295, 4-(3-{[2-amino-6-(4-methylphenyl)pyrimidin-4-yl]amino}phenoxy) pyridine-2-carboxamide], under 5.70; that for `CC(C)c1cccc(-c2cc(Nc3cccc(Oc4ccnc(C(N)=O)c4)c3)nc(N)n2)c1` [Example 299, 4-(3-{[2-amino-6-(3-isopropylphenyl)pyrimidin-4-yl]amino}phenoxy) pyridine-2-carboxamide], under 5.70.
As for `NC(=O)c1cc(Oc2cccc(Nc3cc(-c4ccc[nH]4)nc(N)n3)c2)ccn1` [Example 301, 4-(3-{[2-amino-6-(1H-pyrrol-2-yl)pyrimidin-4-yl]amino}phenoxy) pyridine-2-carboxamide], the negative-log IC50 (pIC50) is under 5.70.

The same experiment, now with this note: Homo sapiens, HCT-116, 72 h compound exposure, less than or equal to 500 nM.
The compound `CC(C)c1ccc(-c2cc(Nc3ccc(Oc4ccnc(C(N)=O)c4)cc3)nc(N)n2)cc1` [Example 266, 4-(4-{[2-amino-6-(4-isopropylphenyl)pyrimidin-4-yl]amino}phenoxy) pyridine-2-carboxamide] gave a pIC50 of at least 6.30.
Take `Cc1ccc(-c2cc(Nc3ccc(Oc4ccnc(C(N)=O)c4)cc3)nc(N)n2)cc1` [Example 267, 4-(4-{[2-amino-6-(4-methylphenyl)pyrimidin-4-yl]amino}phenoxy) pyridine-2-carboxamide]: the negative-log IC50 (pIC50) was at least 6.30.
Still for that read-out and setting: the same measure for `Cc1cccc(-c2cc(Nc3ccc(Oc4ccnc(C(N)=O)c4)cc3)nc(N)n2)c1` [Example 268, 4-(4-{[2-amino-6-(3-methylphenyl)pyrimidin-4-yl]amino}phenoxy) pyridine-2-carboxamide]: at least 6.30; for `NC(=O)c1cc(Oc2ccc(Nc3cc(-c4ccsc4)nc(N)n3)cc2)ccn1` [Example 269, 4-(4-{[2-amino-6-(3-thienyl)pyrimidin-4-yl]amino}phenoxy) pyridine-2-carboxamide]: at least 6.30; for `Cc1ccc(-c2cc(Nc3ccc(Oc4ccnc(C(N)=O)c4)cc3)nc(N)n2)cc1N` [Example 271, 4-(4-{[2-amino-6-(3-amino-4-methylphenyl)pyrimidin-4-yl]amino}phenoxy)pyridine-2-carboxamide]: at least 6.30.
The same measure, in the same setting: the result for `CCOc1cccc(-c2cc(Nc3ccc(Oc4ccnc(C(N)=O)c4)cc3)nc(N)n2)c1` [Example 273, 4-(4-{[2-amino-6-(3-ethoxyphenyl)pyrimidin-4-yl]amino}phenoxy) pyridine-2-carboxamide] reads at least 6.30.
The same measure, in the same setting: the same measure for `N#Cc1cc(Oc2ccc(Nc3cc(-c4ccccc4OC(F)(F)F)nc(N)n3)cc2)ccn1` [Example 275, 4-[4-({2-amino-6-[2-(trifluoromethoxy)phenyl]pyrimidin-4-yl}amino)phenoxy]pyridine-2-carbonitrile]: at least 6.30; for `NC(=O)c1cc(Oc2ccc(Nc3cc(-c4ccccc4OC(F)(F)F)nc(N)n3)cc2)ccn1` [Example 278, 4-[4-({2-amino-6-[2-(trifluoromethoxy)phenyl]pyrimidin-4-yl}amino)phenoxy]pyridine-2-carboxamide]: at least 6.30; for `Cc1cc(Oc2ccc(Nc3cc(-c4ccc(F)cc4)nc(N)n3)cc2)ccn1` [Example 282, 6-(4-fluorophenyl)-N4*-{4-[(2-methylpyridin-4-yl)oxy]phenyl} pyrimidine-2,4-diamine]: at least 6.30.
`CCc1cccc(-c2cc(Nc3cccc(Oc4ccnc(C(N)=O)c4)c3)nc(N)n2)c1` [Example 288, 4-(3-{[2-amino-6-(3-ethylphenyl)pyrimidin-4-yl]amino}phenoxy) pyridine-2-carboxamide]: the pIC50 was at least 6.30.
Turning to `Cc1ccccc1-c1cc(Nc2cccc(Oc3ccnc(C(N)=O)c3)c2)nc(N)n1` [Example 290, 4-(3-{[2-amino-6-(2-methylphenyl)pyrimidin-4-yl]amino}phenoxy) pyridine-2-carboxamide], the pIC50 was at least 6.30.
The same measure, in the same setting: the result for `COc1cccc(-c2cc(Nc3cccc(Oc4ccnc(C(N)=O)c4)c3)nc(N)n2)c1` [Example 292, 4-(3-{[2-amino-6-(3-methoxyphenyl)pyrimidin-4-yl]amino}phenoxy) pyridine-2-carboxamide] reads at least 6.30; that for `Cc1cccc(-c2cc(Nc3cccc(Oc4ccnc(C(N)=O)c4)c3)nc(N)n2)c1` [Example 296, 4-(3-{[2-amino-6-(3-methylphenyl)pyrimidin-4-yl]amino}phenoxy) pyridine-2-carboxamide], at least 6.30.
For `NC(=O)c1cc(Oc2cccc(Nc3cc(-c4ccsc4)nc(N)n3)c2)ccn1` [Example 298, 4-(3-{[2-amino-6-(3-thienyl)pyrimidin-4-yl]amino}phenoxy) pyridine-2-carboxamide], the negative-log IC50 (pIC50) is at least 6.30.
